In patent US7109193B2, “Tricyclic diazepines tocolytic oxytocin receptor antagonists” (Wyeth, priority 2001, dated 2006):

Target: T1, human vasopressin V2 receptor subtype (Homo sapiens, UniProt P30518)
T1 construct: host or cells: CHO cells (pZeoSV vector)
Assay: Vasopressin binding in Chinese Hamster Ovary cell membranes expressing human vasopressin V2 subtype receptors
Settings: CHO cell membranes, [3H]arginine vasopressin; for inhibition at 0.1 µM: 100 nM, values without parentheses; for IC50: values in parentheses
Summary of the method: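 Radioligand displacement on membranes from CHO cells stably expressing human V2 receptor, 25 to 50 μg protein/well, in 50 mM Tris-HCl pH 7.4 with MgCl2, BSA and protease inhibitors. [^3H]arginine vasopressin (8 nM working solution) incubated 60 min at room temperature; bound label measured by filtration and scintillation counting.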

T1 sequence (P30518 whole entry): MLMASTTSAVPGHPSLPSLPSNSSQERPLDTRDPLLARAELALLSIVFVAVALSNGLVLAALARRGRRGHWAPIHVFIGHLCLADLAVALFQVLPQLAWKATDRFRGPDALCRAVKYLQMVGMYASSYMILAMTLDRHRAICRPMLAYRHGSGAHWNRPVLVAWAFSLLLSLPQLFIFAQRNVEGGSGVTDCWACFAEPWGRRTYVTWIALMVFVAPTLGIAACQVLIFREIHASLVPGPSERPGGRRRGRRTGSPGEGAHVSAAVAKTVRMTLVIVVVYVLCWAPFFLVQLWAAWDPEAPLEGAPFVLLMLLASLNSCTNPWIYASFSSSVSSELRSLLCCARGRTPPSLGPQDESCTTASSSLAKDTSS

SMILES | inhibition at 0.1 µM | IC50
COc1ccccc1-c1ccc(C(=O)N2Cc3ccc(C(=O)N(C)CCCN(C)C)n3Cc3ccccc32)cc1 [Example 103, N-[3-(Dimethylamino)propyl]-10-[(2′-methoxy[1,1′-biphenyl]-4-yl)carbonyl]-N-methyl-10,11-dihydro-5H-pyrrolo[2,1-c][1,4]benzodiazepine-3-carboxamide] | 11% | –
Cc1cc(C(=O)N2Cc3ccc(C(=O)N4CCN(CCCN(C)C)CC4)n3Cc3ccccc32)ccc1-c1ccccc1C(F)(F)F [Example 4, [4-(3-Dimethylaminopropyl)-piperazin-1-yl]-[10-(2-methyl-2′-trifluoromethyl-[1,1′-biphenyl]-4-yl)carbonyl]-[10,11-dihydro-5H-pyrrolo[2,1-c][1,4]benzodiazepin-3-yl]-methanone] | 24% | –
C=CCN1CCN(C(=O)c2ccc3n2Cc2ccccc2N(C(=O)c2ccc(-c4ccccc4OC)cc2)C3)CC1 [Example 221, (4-Allyl-1-piperazinyl){10-[(2′-methoxy[1,1′-biphenyl]4-yl)carbonyl]-10,11-dihydro-5H -pyrrolo[2,1-c][1,4]benzodiazepin-3-yl}methanone] | – | 833 nM
Cc1cc(C(=O)N2Cc3ccc(C(=O)N4CC[C@@H](N(C)C)C4)n3Cc3ccccc32)ccc1-c1ccccc1C(F)(F)F [Example 271, [(3R)-3-(Dimethylamino)pyrrolidinyl](10-{[2-methyl-2′-(trifluoromethyl)[1,1′-biphenyl]-4-yl]carbonyl}-10,11-dihydro-5H-pyrrolo[2,1-c][1,4]benzodiazepin-3-yl)methanone] | – | 1920 nM
COc1ccccc1-c1ccc(C(=O)N2Cc3ccc(C(=O)N4CCN(CCCN(C)C)CC4)n3Cc3ccccc32)cc1 [Example 246, {4-[3-(Dimethylamino)propyl]-1-piperazinyl}{10-[(2′-methoxy[1,1′-biphenyl]-4-yl)carbonyl]-10,11-dihydro-5H-pyrrolo[2,1-c][1,4]benzodiazepin-3-yl}methanone] | – | 508 nM
COc1cc(C(=O)N2Cc3ccc(C(=O)N(C)CCCN(C)C)n3Cc3ccccc32)ccc1-c1cccc2ccccc12 [Example 106, N-[3-(Dimethylamino)propyl]-10-[3-methoxy-4-(1-naphthyl)benzoyl]-N-methyl-10,11-dihydro-5H-pyrrolo[2,1-c][1,4]benzodiazepine-3-carboxamide] | 34% | –
COc1cc(-c2ccccc2C)c(Cl)cc1C(=O)N1Cc2ccc(C(=O)N3CC[C@@H](N(C)C)C3)n2Cc2ccccc21 [Example 273, {10-[(6-Chloro-3-methoxy-2′-methyl[1,1′-biphenyl]-4-yl)carbonyl]-10,11-dihydro-5H-pyrrolo[2,1-c][1,4]benzodiazepin-3-yl}[(3R)-3-(dimethylamino)pyrrolidinyl]methanone] | – | 812 nM
COc1ccccc1-c1ccc(C(=O)N2Cc3ccc(C(=O)N4CCN(C)CC4)n3Cc3ccccc32)cc1 [Example 48, {10-[(2′-Methoxy[1,1′-biphenyl]-4-yl)carbonyl]-10,11-dihydro-5H-pyrrolo[2,1-c][1,4]benzodiazepin-3-yl}(4-methyl-1-piperazinyl)methanone] | – | 700 nM
COc1cc(C(=O)N2Cc3ccc(C(=O)N(C)CCN(C)C)n3Cc3ccccc32)ccc1-c1ccccc1C(F)(F)F [Example 22, N-Methyl-[N-(2-dimethylamino)ethyl]-10-{[2-methoxy-2′-trifluoromethyl-[1,1′-biphenyl]-4-yl]carbonyl}-10,11-dihydro-5H-pyrrolo[2,1-c][1,4]benzodiazepine-3-carboxamide] | – | 1430 nM
COc1cccc(-c2ccc(C(=O)N3Cc4ccc(C(=O)N(C)CCCN(C)C)n4Cc4ccccc43)cc2C)c1 [Example 102, N-[3-(Dimethylamino)propyl]-10-[(3′-methoxy-2-methyl[1,1′-biphenyl]-4-yl)carbonyl]-N-methyl-10,11-dihydro-5H-pyrrolo[2,1-c][1,4]benzodiazepine-3-carboxamide] | 18% | –
